Experimental findings from ChEMBL document CHEMBL1201862, “PubChem BioAssay data set” (2004) are described below.

Holding throughout (test): DTP human tumour cell line panel, 48 h
The subject of assay [1] is HOP-62.
Assay [2] concerns SN12C.
For assay [3], the system named is NCI-H23.
In assay [4] the test system is CCRF-CEM.
The test system of assay [5] is UO-31.
Assay [6] relates to OVCAR-5.
The subject of assay [7] is MCF7.
In assay [8] the test system is HT-29.
Assay [9] deals with KM12.
Assay [10] concerns NCI-H460.
Assay [11] relates to SF-295.
For assay [12], the system named is SNB-75.
Assay [13] has as its system SF-539.
Assay [14] has as its system OVCAR-4.
Assay [15] concerns HCT-15.
The test system of assay [16] is A549.
In assay [17] the test system is EKVX.
The subject of assay [18] is HL-60.
For assay [19], the system named is COLO 205.
For assay [20], the system named is HCC 2998.

The structures appear in SMILES notation.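 Grown in 96-well plates, cells were treated for 48 hours with each compound at five concentrations. Insufficient inhibition: endpoint recorded as highest concentration tested. The concentration for 50% growth inhibition is given as GI50.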 The source made the active and inactive calls. Rule as the data show it: active = GI50 up to about 1.1 µM and inactive = higher.

Turning to `C=CC1OC(CCCOC(=O)C(C)(C)C)O[C@@H]1CC` (stereo partly specified), the GI50 in assay [1], in assay [2], in [3], in assay [4], in assay [5] and in assay [6] was > 100 µM (inactive) throughout. The GI50 – broadly, the concentration at which growth is held to half of that of the control – was > 100 µM (inactive) in assay [7]; > 100 µM (inactive) in assay [8]; > 100 µM (inactive) in [9]; 37.2 µM (inactive) in assay [10]; > 100 µM (inactive) in assay [11]; > 100 µM (inactive) in assay [12]. The GI50 in assay [13] was > 100 µM (inactive); in assay [14] it was > 100 µM (inactive); in [15] it was > 100 µM; in [16], > 100 µM (inactive); in assay [17], > 100 µM (inactive); in assay [18], 7.38 µM (inactive). The GI50 in assay [19] is > 100 µM (inactive).

In the case of `Cc1ccc(C)c(NC(=O)C(=O)C(C(=O)c2ccc3ccccc3c2)C2OC(=O)c3ccccc32)c1` (stereo unspecified), the GI50 in assay [1] is 20.2 µM (inactive); in assay [2], 15.7 µM (inactive); in assay [3], 15.6 µM (inactive); in assay [4], 10.9 µM (inactive); in [5], 16.5 µM (inactive); in assay [6] it was 14.9 µM (inactive). Moreover, the GI50 in assay [8] was 28.1 µM (inactive); in assay [9] it was 14.2 µM (inactive); in assay [10] it was 11.6 µM (inactive); in assay [11] it was 10.4 µM (inactive); in [12], 12.4 µM (inactive); in [13], 4.75 µM (inactive). The GI50 in [14] was 21.9 µM (inactive); in [20] it was 15 µM (inactive); in [15], 21.5 µM; in assay [16], 18.2 µM (inactive); in assay [17], 16.5 µM (inactive); in assay [18], 17.1 µM (inactive). For the same compound, in assay [19], the GI50 was 15.8 µM (inactive).

As for `OC1CCSc2ccccc21` (stereo unspecified), the GI50 in assay [1], in assay [2], in assay [3], in assay [4], in assay [5] and in [6] was > 100 µM (inactive) in each case. The GI50 in assay [8], in assay [9], in [10], in assay [13], in assay [14] and in [20] was > 100 µM (inactive) each time. Moreover, the GI50 in [15] is > 100 µM; in assay [16], > 100 µM (inactive); in assay [17], > 100 µM (inactive); in [19] it was > 100 µM (inactive).

On to `Cc1cn(C2CCN(CC3COC(C)(C)O3)O2)c(=O)[nH]c1=O` (stereo unspecified), for which the GI50 in assay [1], in assay [2], in [3], in assay [4], in [5] and in assay [6] was > 100 µM (inactive) throughout. Further, the GI50 in assay [7], in assay [8], in assay [9], in assay [10], in assay [11] and in assay [12] was > 100 µM (inactive) each time. Besides, the GI50 in assay [13] was > 100 µM (inactive); in assay [14], > 100 µM (inactive); in [15], > 100 µM; in assay [16], > 100 µM (inactive); in assay [17], > 100 µM (inactive); in assay [18], > 100 µM (inactive). Besides, the GI50 in assay [19] was > 100 µM (inactive).

On to `N#CC1(C#N)N[C@@H](c2ccsc2)[C@H]2C(=O)N(c3ccccc3)C(=O)[C@H]21`, for which the GI50 is > 100 µM (inactive) in assay [1]; 89.1 µM (inactive) in assay [2]; > 100 µM (inactive) in assay [3]; > 100 µM (inactive) in [5]; 85.5 µM (inactive) in [8]; > 100 µM (inactive) in assay [9]. Also, the GI50 is > 100 µM (inactive) in [11]; > 100 µM (inactive) in assay [12]; > 100 µM (inactive) in assay [16]; > 100 µM (inactive) in assay [17]; 21.4 µM (inactive) in [18]; 93.8 µM (inactive) in [19].

Turning to `Cc1c(Cl)nc(Nc2nc3ccccc3[nH]2)nc1Cl`, the GI50 in assay [2] was 41 µM (inactive); in assay [3], 92.9 µM (inactive); in [5], > 100 µM (inactive); in [6], > 100 µM (inactive); in assay [8], 25 µM (inactive); in [9], 17.1 µM (inactive). Besides, the GI50 was > 100 µM (inactive) in [10]; > 100 µM (inactive) in assay [11]; > 100 µM (inactive) in assay [12]; > 100 µM (inactive) in assay [13]; 29 µM (inactive) in assay [14]; > 100 µM in assay [15]. Also, the GI50 in assay [16] was > 100 µM (inactive); in assay [17], 21.9 µM (inactive); in assay [18], > 100 µM (inactive); in assay [19], 72.3 µM (inactive).

On to `CCOC(=O)[C@H]1Nc2ccc(Cl)cc2[C@H]2c3ccccc3O[C@H]21`, for which the GI50 was > 100 µM (inactive) in [1]; > 100 µM (inactive) in assay [2]; > 10 µM (inactive) in assay [3]; > 100 µM (inactive) in assay [5]; > 100 µM (inactive) in [6]; 99.3 µM (inactive) in assay [8]. In addition, the GI50 in assay [9] was 93.5 µM (inactive); in assay [10] it was > 100 µM (inactive); in assay [11], 72.1 µM (inactive); in assay [12] it was 47.4 µM (inactive); in assay [13], > 100 µM (inactive); in assay [14], 54.1 µM (inactive). Moreover, the GI50 in assay [20] is > 100 µM (inactive); in assay [15] it was 16.4 µM; in [16] it was 79.4 µM (inactive); in [17] it was > 100 µM (inactive); in assay [19] it was > 100 µM (inactive).

Turning to `O=C(Nc1ccc(Cl)cc1)C(=O)C(C(=O)c1ccccc1-c1ccccc1)C1OC(=O)c2ccccc21` (stereo unspecified), the GI50 in [1] is 26.4 µM (inactive); in assay [2], 19.3 µM (inactive); in [3], 23.1 µM (inactive); in assay [4], 18.2 µM (inactive); in assay [5], 19.4 µM (inactive); in [6] it was 28.3 µM (inactive). Also, the GI50 in assay [8] is 23.1 µM (inactive); in assay [9], 17.3 µM (inactive); in [10], 19.4 µM (inactive); in [11], 26.9 µM (inactive); in [12] it was 31.4 µM (inactive); in [13], 22.5 µM (inactive). For the same compound, the GI50 was 35.5 µM (inactive) in [14]; 19.4 µM (inactive) in assay [20]; 17.6 µM in [15]; 23.6 µM (inactive) in assay [16]; 18.2 µM (inactive) in [17]; 18.5 µM (inactive) in assay [18]. Besides, the GI50 in [19] was 21.7 µM (inactive).

Take `COc1cc(C2S/C(=C/c3ccccc3)C(=O)N2c2cccc(NC(C)=O)c2)cc(OC)c1OC` (stereo unspecified): the GI50 in assay [1] is 67 µM (inactive); in assay [2] it was 45.2 µM (inactive); in [3], 38 µM (inactive); in assay [4], 40.2 µM (inactive); in [5] it was 36.6 µM (inactive); in assay [6] it was 65.8 µM (inactive). For the same compound, the GI50 in assay [7] was 26.1 µM (inactive); in [8], 21.1 µM (inactive); in assay [9], 27.2 µM (inactive); in assay [11], 40.5 µM (inactive); in assay [12], 4.02 µM (inactive); in assay [14], 24.4 µM (inactive). Further, the GI50 in [20] was 29.6 µM (inactive); in assay [15] it was 30.5 µM; in [16], 39.2 µM (inactive); in [17] it was 19.3 µM (inactive); in assay [19] it was 27.3 µM (inactive).

Consider `O=C(O)C1=C(CO)Oc2cc3c(cc2C1c1ccc2c(c1)OCO2)OCO3` (stereo unspecified), for which the GI50 in [1], in assay [2], in assay [3], in assay [4], in [5] and in assay [8] was > 100 µM (inactive) each time. Moreover, the GI50 in [10] was > 100 µM (inactive); in [11], > 100 µM (inactive); in assay [12], > 100 µM (inactive); in assay [13], > 100 µM (inactive); in assay [14] it was > 100 µM (inactive); in [15], > 100 µM. The GI50 in assay [16], in assay [17], in [18] and in assay [19] was > 100 µM (inactive) each time.

Turning to `COc1cc(O)c2c(c1)C(=O)c1cc3c(c(O)c1C2=O)C(OC1OC(C)C(O)C(O)C1OC)C(OC)C(C)(O)C3=O` (stereo unspecified), the GI50 is 3.82 µM (inactive) in assay [1]; 1.9 µM (inactive) in assay [2]; 2.06 µM (inactive) in [3]; 2.09 µM (inactive) in assay [5]; 4.43 µM (inactive) in assay [6]; 2.54 µM (inactive) in assay [7]. Further, the GI50 was 1.17 µM (inactive) in [8]; 1.53 µM (inactive) in assay [10]; 1.82 µM (inactive) in assay [11]; 3.57 µM (inactive) in assay [12]; 1.85 µM (inactive) in assay [13]; 0.476 µM (active) in [14]. The GI50 is 4.23 µM (inactive) in [20]; 2.32 µM in [15]; 3.71 µM (inactive) in [16]; 2.43 µM (inactive) in [17]; 0.76 µM (active) in assay [19].

In the case of `O=Cc1c(Cn2ccnc2)c2cc([N+](=O)[O-])ccc2n1Cc1ccccc1`, the GI50 is 27.3 µM (inactive) in [1]; > 86.5 µM (inactive) in assay [2]; > 100 µM (inactive) in assay [3]; 63.5 µM (inactive) in assay [4]; > 60.1 µM (inactive) in assay [5]; > 90.6 µM (inactive) in assay [6]. For the same compound, the GI50 was 75.3 µM (inactive) in assay [7]; > 100 µM (inactive) in assay [8]; 73.3 µM (inactive) in assay [9]; 37.3 µM (inactive) in assay [10]; 36.8 µM (inactive) in assay [11]; > 100 µM (inactive) in assay [12]. In addition, the GI50 in assay [13] was > 72.6 µM (inactive); in [14] it was > 100 µM (inactive); in assay [20] it was > 100 µM (inactive); in [15], > 100 µM; in assay [16] it was 51.9 µM (inactive); in [17] it was > 100 µM (inactive). For the same compound, the GI50 in [19] is > 100 µM (inactive).
